Assay results from patent publication US20150238490A1 (Pharmacyclics, Inc., priority 2014, published 2015).
Entries after “also recorded” stand apart in the source; their conditions may differ.

What was measured:
CLL patients = conditions: plasma, previous studies; cited from earlier work
[1] = tested on: OCI-Ly19 cell line (GCB subtype DLBCL); assay: CCL3/CCL4 secretion by DLBCL cell line, supernatant ELISA; type: cell-based, human; conditions: 1 μM ibrutinib, supernatant after 24 h
Experimental: (§1) For BCR stimulation, culture medium was supplemented with 10 μg/mL anti-IgM (polyclonal goat F(ab′)2 fragments to human IgM, MP Biomedicals) for the indicated time periods.
(§2) All DLBCL cell lines were grown in RPMI 1640 medium (Hyclone) supplemented with glutamine, beta-mercaptoethanol, penicillin/streptomycin and 10% fetal bovine serum, except for OCI-Ly3 and OCI-Ly10, which were maintained in Iscove's modified Dulbecco's medium (Gibco) supplemented with beta-mercaptoethanol, penicillin/streptomycin and 20% heparinized human plasma. All cell lines were grown in a humidified 5% CO2 incubator at 37° C. DLBCL cell lines included TMD8, HBL-1, OCI-Ly10, OCI-Ly3, DB and OCI-Ly19.
(§3) Cell culture supernatant samples from DLBCL cell lines were used after 24 h for the measurement of CCL3 and CCL4 levels for quantification by ELISA using Quantikine Kits (R&D Systems). The absorbance was recorded by a microplate reader (ELx808, Bio-Tek Instruments), and data collection and analysis were performed using Gen5 software Version 1.08 (Bio-Tek Instruments).
(§4) Peripheral blood serum samples were obtained from the tissue bank of the Department of Lymphoma and Myeloma at MDACC or from the University of Nebraska Medical Center. All serum samples were aliquoted and stored at the time of initial referral to each institution. Serum and cell culture supernatant CCL3 and CCL4 levels were quantified by ELISA using Quantikine Kits (R&D Systems) and was conducted at MDACC (Sivina M, Hartmann E, Kipps T J, et al. “CCL3 (MIP-1alpha) plasma levels and the risk for disease progression in chronic lymphocytic leukemia.” Blood. 2011; 117(5):1662-1669.). The absorbance was recorded on a microplate reader (ELx808, Bio-Tek Instruments), and data collection and analysis were performed using Gen5 software Version 1.08 (Bio-Tek Instruments).

[2] = tested on: HBL-1 cell line (ABC subtype DLBCL); assay: as above; type: cell-based, human; conditions: for mean supernatant concentration of CCL3: 24 h
Experimental: as §1, §2, §3, §4

[3] = tested on: TMD8 cell line (ABC subtype DLBCL); assay: as above; type: cell-based, human
Experimental: as §1, §2, §3, §4

[4] = tested on: DB cell line (GCB subtype DLBCL); assay: as above; type: cell-based, human; conditions: 1 μM ibrutinib, supernatant after 24 h
Experimental: as §1, §2, §3, §4

[5] = tested on: OCI-Ly10 cell line (ABC subtype DLBCL); assay: as above; type: cell-based, human; conditions: 1 μM ibrutinib, supernatant after 24 h
Experimental: as §1, §2, §3, §4

[6] = tested on: OCI-Ly3 cell line (ABC subtype DLBCL, CARD11 mutation); assay: as above; type: cell-based, human; conditions: 1 μM ibrutinib, supernatant after 24 h
Experimental: as §1, §2, §3, §4

DLBCL patients = assay: Serum CCL3 and CCL4 pre- and post-treatment in patients with DLBCL; type: in vivo, human; conditions: in most patients
Source text: The study included 102 patients from MD Anderson Cancer Center (MDACC) with newly diagnosed DLBCL between January 2009 and February 2011 (MDA test cohort). In addition, a second set of 51 patients from MDACC with newly diagnosed DLBCL was included for validation analysis (MDA validation cohort). Nineteen patients with newly diagnosed DLBCL from the University of Nebraska were also included in the correlation analysis between serum CCL3/CCL4 levels and GCB vs. non-GCB subtype (Nebraska cohort). […] Demographics and other clinical parameters for both MDACC test and validation cohort were obtained at the time of initial referral to MDACC. DLBCL diagnosis was established by institutional pathologists according to the WHO classification. Immunophenotypic classification (GCB vs. non-GCB subtype) of DLBCL was determined by Hans criteria. […]
Peripheral blood serum samples were obtained from the tissue bank of the Department of Lymphoma and Myeloma at MDACC or from the University of Nebraska Medical Center. […] Serum and cell culture supernatant CCL3 and CCL4 levels were quantified by ELISA using Quantikine Kits (R&D Systems) and was conducted at MDACC (Sivina M, Hartmann E, Kipps T J, et al. “CCL3 (MIP-1alpha) plasma levels and the risk for disease progression in chronic lymphocytic leukemia.” Blood. 2011; 117(5):1662-1669.). […]

[7] = 1 μM ibrutinib, alone or with 10 μg/mL anti-IgM, supernatant after 24 h
[8] = ibrutinib titration (3.1-1000 nM) in combination with 10 μg αIgM

| Compound | elevated CCL3 and CCL4 levels after pharmacologic inhibition of BCR signaling (CLL patients) | CCL3 level after ibrutinib treatment [1] | CCL4 level after ibrutinib treatment [1] | mean supernatant concentration of CCL3 ([2]; 1 μM ibrutinib alone (unstimulated cells), baseline 1705.5 pg/mL) | mean supernatant concentration of CCL3 ([2]; 1 μM ibrutinib in combination with 10 μg/mL anti-IgM) | CCL3 level after ibrutinib treatment [2, 7] | CCL4 level after ibrutinib treatment [2, 7] | ibrutinib concentration resulting in the lowest CCL3 level [2, 8] [nM] | ibrutinib concentration resulting in the lowest CCL4 level [2, 8] [nM] | CCL3 level after ibrutinib treatment [3, 7] | CCL4 level after ibrutinib treatment [3, 7] | CCL3 level after BCR stimulation, ibrutinib titration ([3]; 1000 nM ibrutinib with 10 μg αIgM, decreased level maintained at 500 nM and 100 nM) | CCL4 level after BCR stimulation, ibrutinib titration ([3]; 1000 nM ibrutinib with 10 μg αIgM, decreased level maintained at 500 nM, 100 nM and 50 nM) | CCL3 level after ibrutinib treatment [4] | CCL4 level after ibrutinib treatment [4] | CCL3 level after ibrutinib treatment [5] | CCL4 level after ibrutinib treatment [5] | CCL3 level after ibrutinib treatment [6] | CCL4 level after ibrutinib treatment [6] | high concentrations of serum CCL3 and CCL4 after therapy (DLBCL patients) |
| --- | --- | --- | --- | --- | --- | --- | --- | --- | --- | --- | --- | --- | --- | --- | --- | --- | --- | --- | --- | --- |
| CC[C@H](Nc1ncnc2[nH]cnc12)c1nc2cccc(F)c2c(=O)n1-c1ccccc1 [GS-1101/CAL-101/idelalisib] | rapidly normalize | – | – | – | – | – | – | – | – | – | – | – | – | – | – | – | – | – | – | – |
| C=CC(=O)N1CCC[C@@H](n2nc(-c3ccc(Oc4ccccc4)cc3)c3c(N)ncnc32)C1 [ibrutinib, 1-((R)-3-(4-amino-3-(4-phenoxyphenyl)-1H-pyrazolo[3,4-d]pyrimidin-1-yl)piperidin-1-yl)prop-2-en-1-one] | – | did not respond; also recorded: unaffected | did not respond; also recorded: unaffected | 313.2 (±6.8) pg/mL | 2029.16 (±26.9) pg/mL | abrogated; also recorded: significantly decreased | abrogated; also recorded: significantly decreased | 500 | 500 | abrogated; also recorded: significantly decreased | abrogated; also recorded: significantly decreased | decreased | decreased | did not respond; also recorded: unaffected | did not respond; also recorded: unaffected | sensitive to inhibition; also recorded: significant decrease | sensitive to inhibition; also recorded: significant decrease | did not respond; also recorded: unaffected | did not respond; also recorded: unaffected | returned to low levels |
